Source: US9890142B2, “PDE4 inhibitor” (Meiji Seika Pharma Co., Ltd., priority 2013, dated 2018)

Test system: PDE4
Assay: Evaluation of PDE4 inhibition (scintillation proximity assay)
Format: biochemical
Settings: inhibition rate relative to control, test compound at 1 μM
In short: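 PDE4 was incubated 120 min at room temperature with [3H]-cAMP and compound in 50 mM Tris-HCl pH 7.5, 8.3 mM MgCl2, 1.7 mM EDTA, 0.3 mg/mL BSA. Product captured on ZnSO4-containing YSi-SPA beads and counted; inhibition calculated against DMSO control after no-enzyme blank subtraction.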

In order of rising “PDE4 inhibitory activity (1 μM (%))” value:
1. Cc1c(Cl)cc2nc(N3CCNC[C@@H]3C)oc2c1-c1ccccn1 [Example 137, (S)-5-Chloro-6-methyl-2-(2-methylpiperazin-1-yl)-7-(pyridin-2-yl)benzoxazole]  33%
2. COc1c(Cl)cc2nc(N3CCNC[C@@H]3C)oc2c1-c1ccccn1 [Example 140, (S)-5-Chloro-6-methoxy-2-(2-methylpiperazin-1-yl)-7-(pyridin-2-yl)benzoxazole]  35%
3. Cc1c(Cl)cc2nc(N3CCNC[C@@H]3C)oc2c1-n1cccn1 [Example 139, (S)-5-Chloro-6-methyl-2-(2-methylpiperazin-1-yl)-7-(1H-pyrazol-1-yl)benzoxazole]  39%
4. C[C@H]1CNCCN1c1nc2c(F)c(Cl)c(F)c(-c3ccccn3)c2o1 [Example 120, (S)-5-Chloro-4,6-difluoro-2-(2-methylpiperazin-1-yl)-7-(pyridin-2-yl)benzoxazole]  41%
5. C[C@H]1CNCCN1c1nc2cc(F)c(C(F)(F)F)c(-c3nccs3)c2o1 [Example 144, (S)-5-Fluoro-2-(2-methylpiperazin-1-yl)-7-(thiazol-2-yl)-6-(trifluoromethyl)benzoxazole]  41%
6. C[C@H]1CNCCN1c1nc2cc(Cl)cc(C3=NCCO3)c2o1 [Example 106, (S)-5-Chloro-7-(4,5-dihydro-oxazol-2-yl)-2-(2-methylpiperazin-1-yl)benzoxazole]  42%
7. C[C@H]1CNCCN1c1nc2c(F)c(F)c(F)c(-n3cccn3)c2o1 [Example 124, (S)-4,5,6-Trifluoro-2-(2-methylpiperazin-1-yl)-7-(1H-pyrazol-1-yl)benzoxazole]  46%
8. C[C@H]1CNCCN1c1nc2cc(Cl)cc(Br)c2o1 [Example 110, (S)-7-Bromo-5-chloro-2-(2-methylpiperazin-1-yl)benzoxazole]  57%
9. C[C@H]1CNCCN1c1nc2cc(Cl)cc(-c3ncon3)c2o1 [Example 105, (S)-5-Chloro-2-(2-methylpiperazin-1-yl)-7-(1,2,4-oxadiazol-3-yl)benzoxazole]  61%
10. C[C@H]1CNCCN1c1nc2cc(Cl)cc(-c3ccno3)c2o1 [Example 109, (S)-5-Chloro-7-(isoxazol-5-yl)-2-(2-methylpiperazin-1-yl)benzoxazole]  61%
11. C[C@H]1CNCCN1c1nc2c(F)c(Cl)c(F)c(-c3nccs3)c2o1 [Example 121, (S)-5-Chloro-4,6-difluoro-2-(2-methylpiperazin-1-yl)-7-(thiazol-2-yl)benzoxazole]  62%
12. COCc1cc(Cl)cc2nc(N3CCNC[C@@H]3C)oc12 [Example 107, (S)-5-Chloro-7-(methoxymethyl)-2-(2-methylpiperazin-1-yl)benzoxazole]  66%
13. C[C@H]1CNCCN1c1nc2cc(Cl)cc(-c3ccon3)c2o1 [Example 108, (S)-5-Chloro-7-(isoxazol-3-yl)-2-(2-methylpiperazin-1-yl)benzoxazole]  66%
14. C[C@H]1CNCCN1c1nc2cc(C#N)cc(-c3ncco3)c2o1 [Example 113, (S)-5-Cyano-2-(2-methylpiperazin-1-yl)-7-(oxazol-2-yl)benzoxazole]  71%
15. Cc1cc(-c2ccccn2)c2oc(N3CCNC[C@@H]3C)nc2c1 [Example 114, (S)-5-methyl-2-(2-methylpiperazin-1-yl)-7-(pyridin-2-yl)benzoxazole]  77%
16. COc1c(Cl)cc2nc(N3CCNC[C@@H]3C)oc2c1-c1nccs1 [Example 141, (S)-5-Chloro-6-methoxy-2-(2-methylpiperazin-1-yl)-7-(thiazol-2-yl)benzoxazole]  77%
17. C[C@H]1CNCCN1c1nc2c(F)c(F)c(F)c(-c3ccccn3)c2o1 [Example 122, (S)-4,5,6-Trifluoro-2-(2-methylpiperazin-1-yl)-7-(pyridin-2-yl)benzoxazole]  79%
18. C[C@H]1CNCCN1c1nc2c(F)c(Cl)cc(-c3ccccn3)c2o1 [Example 128, (S)-5-Chloro-4-fluoro-2-(2-methylpiperazin-1-yl)-7-(pyridin-2-yl)benzoxazole]  79%
19. Cc1cc(-c2ncco2)c2oc(N3CCNC[C@@H]3C)nc2c1 [Example 116, (S)-5-methyl-2-(2-methylpiperazin-1-yl)-7-(oxazol-2-yl)benzoxazole]  80%
20. C[C@H]1CNCCN1c1nc2cc(C#N)cc(-c3ccccn3)c2o1 [Example 111, (S)-5-Cyano-2-(2-methylpiperazin-1-yl)-7-(pyridin-2-yl)benzoxazole]  83%
21. C[C@H]1CNCCN1c1nc2c(F)c(Cl)cc(-n3cccn3)c2o1 [Example 130, (S)-5-Chloro-4-fluoro-2-(2-methylpiperazin-1-yl)-7-(1H-pyrazol-1-yl)benzoxazole]  83%
22. Cc1c(Cl)cc2nc(N3CCNC[C@@H]3C)oc2c1-c1nccs1 [Example 138, (S)-5-Chloro-6-methyl-2-(2-methylpiperazin-1-yl)-7-(thiazol-2-yl)benzoxazole]  86%
23. C[C@H]1CNCCN1c1nc2cc(Cl)c(C#N)c(-c3nccs3)c2o1 [Example 142, (S)-5-Chloro-6-cyano-2-(2-methylpiperazin-1-yl)-7-(thiazol-2-yl)benzoxazole]  86%
24. C[C@H]1CNCCN1c1nc2cc(F)cc(-c3ncco3)c2o1 [Example 104, (S)-5-Fluoro-2-(2-methylpiperazin-1-yl)-7-(oxazol-2-yl)benzoxazole]  88%
25. C[C@H]1CNCCN1c1nc2c(C(F)(F)F)c(F)cc(-c3ccccn3)c2o1 [Example 117, (S)-5-Fluoro-2-(2-methylpiperazin-1-yl)-7-(pyridin-2-yl)-4-(trifluoromethyl)benzoxazole]  88%
26. C[C@H]1CNCCN1c1nc2c(OC(F)(F)F)c(F)cc(-c3ccccn3)c2o1 [Example 134, (S)-5-Fluoro-2-(2-methylpiperazin-1-yl)-7-(pyridin-2-yl)-4-(trifluoromethoxy)benzoxazole]  88%
27. C[C@H]1CNCCN1c1nc2cc(C(F)(F)F)cc(-c3ncco3)c2o1 [Example 127, (S)-2-(2-Methylpiperazin-1-yl)-7-(oxazol-2-yl)-5-(trifluoromethyl)benzoxazole]  90%
28. Cc1c(Cl)cc(-c2ccccn2)c2oc(N3CCNC[C@@H]3C)nc12 [Example 131, (S)-5-Chloro-4-methyl-2-(2-methylpiperazin-1-yl)-7-(pyridin-2-yl)benzoxazole]  90%
29. C[C@H]1CNCCN1c1nc2c(OC(F)(F)F)c(F)cc(-n3cccn3)c2o1 [Example 136, (S)-5-Fluoro-2-(2-methylpiperazin-1-yl)-7-(1H-pyrazol-1-yl)-4-(trifluoromethoxy)benzoxazole]  90%
30. Cc1cc(-c2nccs2)c2oc(N3CCNC[C@@H]3C)nc2c1 [Example 115, (S)-5-methyl-2-(2-methylpiperazin-1-yl)-7-(thiazol-2-yl)benzoxazole]  91%
31. C[C@H]1CNCCN1c1nc2c(C(F)(F)F)c(F)cc(-n3cccn3)c2o1 [Example 119, (S)-5-Fluoro-2-(2-methylpiperazin-1-yl)-7-(1H-pyrazol-1-yl)-4-(trifluoromethyl)benzoxazole]  91%
32. C[C@H]1CNCCN1c1nc2cc(C(F)(F)F)cc(-c3ccccn3)c2o1 [Example 125, (S)-2-(2-Methylpiperazin-1-yl)-7-(pyridin-2-yl)-5-(trifluoromethyl)benzoxazole]  91%
33. Cc1c(Cl)cc(-n2cccn2)c2oc(N3CCNC[C@@H]3C)nc12 [Example 133, (S)-5-Chloro-4-methyl-2-(2-methylpiperazin-1-yl)-7-(1H-pyrazol-1-yl)benzoxazole]  92%
34. C[C@H]1CNCCN1c1nc2cc(C#N)cc(-c3nccs3)c2o1 [Example 112, (S)-5-Cyano-2-(2-methylpiperazin-1-yl)-7-(thiazol-2-yl)benzoxazole]  94%
35. Cc1c(Cl)cc(-c2nccs2)c2oc(N3CCNC[C@@H]3C)nc12 [Example 132, (S)-5-Chloro-4-methyl-2-(2-methylpiperazin-1-yl)-7-(thiazol-2-yl)benzoxazole]  94%
36. C[C@H]1CNCCN1c1nc2c(C#N)c(Cl)cc(-c3nccs3)c2o1 [Example 143, (S)-5-Chloro-4-cyano-2-(2-methylpiperazin-1-yl)-7-(thiazol-2-yl)benzoxazole]  94%
37. C[C@H]1CNCCN1c1nc2c(F)c(F)c(F)c(-c3nccs3)c2o1 [Example 123, (S)-4,5,6-Trifluoro-2-(2-methylpiperazin-1-yl)-7-(thiazol-2-yl)benzoxazole]  95%
38. C[C@H]1CNCCN1c1nc2cc(C(F)(F)F)cc(-c3nccs3)c2o1 [Example 126, (S)-2-(2-Methylpiperazin-1-yl)-7-(thiazol-2-yl)-5-(trifluoromethyl)benzoxazole]  95%
39. C[C@H]1CNCCN1c1nc2c(F)c(Cl)cc(-c3nccs3)c2o1 [Example 129, (S)-5-Chloro-4-fluoro-2-(2-methylpiperazin-1-yl)-7-(thiazol-2-yl)benzoxazole]  97%
40. C[C@H]1CNCCN1c1nc2c(C(F)(F)F)c(F)cc(-c3nccs3)c2o1 [Example 118, (S)-5-Fluoro-2-(2-methylpiperazin-1-yl)-7-(thiazol-2-yl)-4-(trifluoromethyl)benzoxazole]  99%
41. C[C@H]1CNCCN1c1nc2c(OC(F)(F)F)c(F)cc(-c3nccs3)c2o1 [Example 135, (S)-5-Fluoro-2-(2-methylpiperazin-1-yl)-7-(thiazol-2-yl)-4-(trifluoromethoxy)benzoxazole]  99%
